Data: ChEMBL document CHEMBL4828771, “Discovery and Development of a Potent, Selective, and Orally Bioavailable CHK1 Inhibitor Candidate: 5-((4-((3-Amino-3-methylbutyl)amino)-5-(trifluoromethyl)pyrimidin-2-yl)amino)picolinonitrile” (J Med Chem, 2021)
Activity calls are given as the source filed them. The calls are words filed in the database; no cut-off is given here.

What was measured:
[1] = Tmax in ICR mouse at 20 mg/kg, po measured after 0.083 to 48 hrs by LC-MS/MS analysis; type: ADME, organism-based; details: in vivo, time 0.083-48 hrs
[2] = AUC (0 to infinity) in ICR mouse at 20 mg/kg, po measured after 0.083 to 48 hrs by LC-MS/MS analysis; type: ADME, organism-based; design: route oral, time upper 48 hrs, time lower 0.083 hrs, dose 20 mg/kg; details: in vivo
[3] = biological target: T1, Serine/threonine-protein kinase DCLK3 (Homo sapiens) (UniProt Q9C098); test: Inhibition of wild type human DCAMKL3 (M1 to G289 residue) expressed in bacterial expression system assessed as protein activity at 0.5 uM relative to control; design: scale not given: the % may be the effect or the level left
T1 sequence (whole entry): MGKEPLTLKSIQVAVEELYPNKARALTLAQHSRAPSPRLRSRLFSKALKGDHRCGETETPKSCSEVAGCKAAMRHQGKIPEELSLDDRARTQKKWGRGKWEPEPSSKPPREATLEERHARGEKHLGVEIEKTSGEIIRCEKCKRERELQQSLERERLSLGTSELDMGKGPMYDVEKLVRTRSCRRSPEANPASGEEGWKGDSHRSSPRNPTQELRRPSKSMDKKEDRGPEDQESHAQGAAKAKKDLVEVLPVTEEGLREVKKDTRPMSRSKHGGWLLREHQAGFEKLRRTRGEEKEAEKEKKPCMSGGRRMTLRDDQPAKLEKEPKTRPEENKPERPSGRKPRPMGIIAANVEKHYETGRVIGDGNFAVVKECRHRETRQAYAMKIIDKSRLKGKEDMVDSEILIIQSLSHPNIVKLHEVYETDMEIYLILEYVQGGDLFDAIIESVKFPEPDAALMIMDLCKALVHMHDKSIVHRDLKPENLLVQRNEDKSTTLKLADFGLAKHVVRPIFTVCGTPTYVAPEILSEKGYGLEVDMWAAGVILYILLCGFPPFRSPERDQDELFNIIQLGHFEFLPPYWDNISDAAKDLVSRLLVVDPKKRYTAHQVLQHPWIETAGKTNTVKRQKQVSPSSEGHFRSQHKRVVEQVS

[4] = tested on: HT-29; test: Antiproliferative activity against human HT-29 cells incubated for 72 hrs in presence of gemcitabine by CCK8 assay; type: functional, cell-based
[5] = Selectivity ratio of Antiproliferative activity against human A549 cells to Antiproliferative activity against human A549 cells in presence of gemcitabine; type: functional
[6] = Selectivity ratio of Antiproliferative activity against human RPMI-8226 cells to Antiproliferative activity against human RPMI-8226 cells in presence of gemcitabine; type: functional
[7] = tested on: HT-29; test: Induction of gamma-H2A.X in human HT-29 cells at 0.12 to 3.3 uM incubated for 12 hrs in presence of gemcitabine by Western blot analysis; type: functional, cell-based; details: dose 0.12-3.3 µM
[8] = tested on: Mus musculus; test: Downregulation of S296 phosphorylation in tumor of mouse xenografted with human HT-29 cells at 30 mg/kg, po dosed 5 days/week for 22 days cotreated with gemcitabine by Western blot analysis; type: functional, organism-based; details: time 22.0 day
[9] = tested on: Mus musculus; test: Induction of S296 phosphorylation in tumor of mouse xenografted with human HT-29 cells at 30 mg/kg, po dosed 5 days/week for 22 days cotreated with gemcitabine by Western blot analysis; type: functional, organism-based; details: time 22.0 day

Question: For `CC(C)(N)CCNc1nc(Nc2ccc(C#N)nc2)ncc1C(F)(F)F`, which Tmax [1] is on record?
Answer: 4 h

Question: And the AUC(0-inf) [2]?
Answer: 22700 ng·h/mL

Question: And the Activity [3]?
Answer: 7%

Question: And the Activity [4]?
Answer: Active

Question: And the Ratio [5]?
Answer: 100

Question: What about the Ratio [6] of the same molecule?
Answer: 100

Question: And the Activity [7]?
Answer: Active

Question: What about the Activity [8] of the same molecule?
Answer: Active

Question: What about the Activity [9] of the same molecule?
Answer: Active
